Starred links: 1 amine or outer side, 2 acyl side, 3 side chain; linkers in the order of their positions; H or OH if unused. Positions of bridges follow the written chain, without caps; N, C: chain ends. Non-standard residues stand in square brackets, D forms with d. Residues, ends and D or L forms follow the SMILES beside them. ξ: configuration not given here. Phe(3-CF3) = N[C@@H](Cc1cccc(C(F)(F)F)c1)C(=O)O; X1 = C=CCOc1ccccc1C[C@H](N[*:1])C(=O)[*:2]; Phe(3-CN) = N#Cc1cccc(C[C@H](N)C(=O)O)c1; Phe(3-Cl) = N[C@@H](Cc1cccc(Cl)c1)C(=O)O; Phe(3-F) = N[C@@H](Cc1cccc(F)c1)C(=O)O; Phe(3-Me) = Cc1cccc(C[C@H](N)C(=O)O)c1; Ahp(2) = CCCCC[C@H](N)C(=O)O; NMeNle = CCCC[C@H](NC)C(=O)O; Tle = CC(C)(C)[C@H](N)C(=O)O; NHexGly = CCCCCCNCC(=O)O; Nle = CCCC[C@H](N)C(=O)O; Orn = NCCC[C@H](N)C(=O)O; ξD = NC(CC(=O)O)C(=O)O; ξS = NC(CO)C(=O)O
The compounds below were run against T1, mouse VISTA (mVISTA) (Mus musculus, UniProt Q9D659) (assay: Cell-Based Binding High-Content Assay For mVISTA (HC CBA mVISTA)). Settings: read-out: HC CBA mVISTA IC50.
T1 construct: expressed in transfected cells; host or cells: Human embryonic kidney 293T cells
T1 sequence (Q9D659 33-308): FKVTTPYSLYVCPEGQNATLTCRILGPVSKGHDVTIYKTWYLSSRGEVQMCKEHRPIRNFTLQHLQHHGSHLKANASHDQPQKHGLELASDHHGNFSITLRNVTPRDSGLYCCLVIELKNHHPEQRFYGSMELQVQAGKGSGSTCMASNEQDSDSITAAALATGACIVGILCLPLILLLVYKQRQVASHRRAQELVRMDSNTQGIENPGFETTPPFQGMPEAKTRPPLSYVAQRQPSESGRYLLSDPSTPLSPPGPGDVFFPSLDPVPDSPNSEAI
Procedure, shortened: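 Read-out: Alexa 647–streptavidin signal imaged on fixed, Hoechst-stained mVISTA-293T cells, with IC50 taken from a four-parameter logistic curve. Compounds competed with 2 nM biotinylated peptide for 30 min at room temperature, tested under both no-wash and wash (1 h compound, media exchange, 1 h) formats.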

SMILES | IC50 [nM]
CCCCCCN1CC(=O)N[C@@H](Cc2ccc(O)cc2)C(=O)N[C@@H](CC(C)C)C(=O)N[C@@H](CC(N)=O)C(=O)N[C@@H](CCCNC(=N)N)C(=O)N[C@@H](CC(C)C)C(=O)N[C@@H](CCCCC)C(=O)N2CCC[C@H]2C(=O)N[C@@H](C(C)C)C(=O)N[C@@H](C(C)C)C(=O)N[C@H](C(=O)NCC(=O)O)CSCC(=O)N[C@@H](Cc2ccccc2)C(=O)N[C@@H](Cc2cccc(C(F)(F)F)c2)C(=O)N[C@@H](CC(=O)O)C1=O [compound 1333] ({CH2CO}-F[Phe(3-CF3)]D[NHexGly]YLNRL[Ahp(2)]PVVCG-OH; thioether N-14) | 27.6
C=CCOc1ccccc1C[C@@H]1NC(=O)[C@H](Cc2ccccc2)NC(=O)CSC[C@@H](C(=O)NCC(N)=O)NC(=O)[C@H](CO)NC(=O)[C@H](C(C)(C)C)NC(=O)[C@@H]2CCCN2C(=O)[C@H](CCCCC)NC(=O)[C@H](CCCC)N(C)C(=O)[C@H](CCCNC(=N)N)NC(=O)[C@H](CC(N)=O)NC(=O)[C@H](CC(C)C)NC(=O)[C@H](Cc2ccc(O)cc2)NC(=O)CN(CCCCCC)C(=O)[C@H](CC(=O)O)NC1=O [compound 1338] ({CH2CO}-F[X1]D[NHexGly]YLNR[NMeNle][Ahp(2)]P[Tle]SCG-NH2; thioether N-14) | 34.6
CCCCCCN1CC(=O)N[C@@H](Cc2ccc(O)cc2)C(=O)N[C@@H](CC(C)C)C(=O)N[C@@H](CC(N)=O)C(=O)N[C@@H](CCCNC(=N)N)C(=O)N(C)[C@@H](CCCC)C(=O)N[C@@H](CCCCC)C(=O)N2CCC[C@H]2C(=O)N[C@@H](C(C)(C)C)C(=O)N[C@@H](CO)C(=O)N[C@H](C(=O)NCC(N)=O)CSCC(=O)N[C@@H](Cc2ccccc2)C(=O)N[C@@H](Cc2cccc(Cl)c2)C(=O)N[C@@H](CC(=O)O)C1=O [compound 1339] ({CH2CO}-F[Phe(3-Cl)]D[NHexGly]YLNR[NMeNle][Ahp(2)]P[Tle]SCG-NH2; thioether N-14) | 31.6
CCCCCCN1CC(=O)N[C@@H](Cc2ccc(O)cc2)C(=O)N[C@@H](CC(C)C)C(=O)N[C@@H](CC(N)=O)C(=O)N[C@@H](CCCNC(=N)N)C(=O)N(C)[C@@H](CCCC)C(=O)N[C@@H](CCCCC)C(=O)N2CCC[C@H]2C(=O)N[C@@H](C(C)(C)C)C(=O)N[C@@H](CO)C(=O)N[C@H](C(=O)NCC(N)=O)CSCC(=O)N[C@@H](Cc2ccccc2)C(=O)N[C@@H](Cc2cccc(C#N)c2)C(=O)N[C@@H](CC(=O)O)C1=O [compound 1340] ({CH2CO}-F[Phe(3-CN)]D[NHexGly]YLNR[NMeNle][Ahp(2)]P[Tle]SCG-NH2; thioether N-14) | 36.8
CCCCCCN1CC(=O)N[C@@H](Cc2ccc(O)cc2)C(=O)N[C@@H](CC(C)C)C(=O)N[C@@H](CC(N)=O)C(=O)N[C@@H](CCCNC(=N)N)C(=O)N(C)[C@@H](CCCC)C(=O)N[C@@H](CCCCC)C(=O)N2CCC[C@H]2C(=O)N[C@@H](C(C)(C)C)C(=O)N[C@@H](CO)C(=O)N[C@H](C(=O)NCC(N)=O)CSCC(=O)N[C@@H](Cc2ccccc2)C(=O)N[C@@H](Cc2cccc(F)c2)C(=O)N[C@@H](CC(=O)O)C1=O [compound 1341] ({CH2CO}-F[Phe(3-F)]D[NHexGly]YLNR[NMeNle][Ahp(2)]P[Tle]SCG-NH2; thioether N-14) | 19.1
CCCCCCN1CC(=O)N[C@@H](Cc2ccc(O)cc2)C(=O)N[C@@H](CCCCC)C(=O)N[C@@H](CC(N)=O)C(=O)N[C@@H](CCCNC(=N)N)C(=O)N(C)[C@@H](CCCC)C(=O)N[C@@H](CCCCC)C(=O)N2CCC[C@H]2C(=O)N[C@@H](C(C)C)C(=O)N[C@@H](C(C)C)C(=O)N[C@H](C(=O)NCC(=O)O)CSCC(=O)N[C@@H](Cc2ccccc2)C(=O)N[C@@H](Cc2cccc(C)c2)C(=O)N[C@@H](CC(=O)O)C1=O [compound 1344] ({CH2CO}-F[Phe(3-Me)]D[NHexGly]Y[Ahp(2)]NR[NMeNle][Ahp(2)]PVVCG-OH; thioether N-14) | 11

The remaining lines, values ahead:

IC50 [nM] | SMILES
4.5 | CCCCCCN1CC(=O)N[C@@H](Cc2ccc(O)cc2)C(=O)N[C@@H](CCCC)C(=O)N[C@@H](CC(N)=O)C(=O)N[C@@H](CCCNC(=N)N)C(=O)N[C@@H](CC(C)C)C(=O)N[C@@H](CCCCC)C(=O)N2CCC[C@H]2C(=O)N[C@@H](C(C)C)C(=O)N[C@@H](CC(=O)O)C(=O)N[C@H](C(=O)NCC(=O)O)CSCC(=O)N[C@@H](Cc2ccccc2)C(=O)N[C@@H](Cc2cccc(C)c2)C(=O)N[C@@H](CC(=O)O)C1=O [compound 1329] ({CH2CO}-F[Phe(3-Me)]D[NHexGly]Y[Nle]NRL[Ahp(2)]PVDCG-OH; thioether N-14)
16.8 | CCCCCCN1CC(=O)N[C@@H](Cc2ccc(O)cc2)C(=O)N[C@@H](CCCC)C(=O)N[C@@H](CC(=O)O)C(=O)N[C@@H](CCCNC(=N)N)C(=O)N[C@@H](CC(C)C)C(=O)N[C@@H](CCCCC)C(=O)N2CCC[C@H]2C(=O)N[C@@H](C(C)C)C(=O)N[C@@H](CC(=O)O)C(=O)N[C@H](C(=O)NC(CO)C(N)=O)CSCC(=O)N[C@@H](Cc2ccccc2)C(=O)N[C@@H](Cc2cccc(C)c2)C(=O)N[C@@H](CC(=O)O)C1=O (stereo partly drawn) [compound 1330] ({CH2CO}-F[Phe(3-Me)]D[NHexGly]Y[Nle]DRL[Ahp(2)]PVDC[ξS]-NH2; thioether N-14)
14.3 | CCCCCCN1CC(=O)N[C@@H](Cc2ccc(O)cc2)C(=O)N[C@@H](CCCC)C(=O)N[C@@H](CC(=O)O)C(=O)N[C@@H](CCCN)C(=O)N[C@@H](CC(C)C)C(=O)N[C@@H](CCCCC)C(=O)N2CCC[C@H]2C(=O)N[C@@H](C(C)C)C(=O)N[C@@H](CC(=O)O)C(=O)N[C@H](C(=O)NC(CO)C(N)=O)CSCC(=O)N[C@@H](Cc2ccccc2)C(=O)N[C@@H](Cc2cccc(C)c2)C(=O)N[C@@H](CC(=O)O)C1=O (stereo partly drawn) [compound 1331] ({CH2CO}-F[Phe(3-Me)]D[NHexGly]Y[Nle]D[Orn]L[Ahp(2)]PVDC[ξS]-NH2; thioether N-14)
12.1 | CCCCCCN1CC(=O)N[C@@H](Cc2ccc(O)cc2)C(=O)N[C@@H](CCCC)C(=O)N[C@@H](CC(N)=O)C(=O)N[C@@H](CCCNC(=N)N)C(=O)N[C@@H](CC(C)C)C(=O)N[C@@H](CCCCC)C(=O)N2CCC[C@H]2C(=O)N[C@@H](C(C)C)C(=O)N[C@@H](CC(=O)O)C(=O)N[C@H](C(=O)NCC(=O)O)CSCC(=O)N[C@@H](Cc2ccccc2)C(=O)N[C@@H](Cc2cccc(C(F)(F)F)c2)C(=O)N[C@@H](CC(=O)O)C1=O [compound 1332] ({CH2CO}-F[Phe(3-CF3)]D[NHexGly]Y[Nle]NRL[Ahp(2)]PVDCG-OH; thioether N-14)
12.5 | CCCCCCN1CC(=O)N[C@@H](Cc2ccc(O)cc2)C(=O)N[C@@H](CCCC)C(=O)N[C@@H](CC(=O)O)C(=O)N[C@@H](CCCNC(=N)N)C(=O)N(C)[C@@H](CCCC)C(=O)N[C@@H](CCCCC)C(=O)N2CCC[C@H]2C(=O)N[C@@H](C(C)C)C(=O)N[C@@H](CC(=O)O)C(=O)N[C@H](C(=O)NC(CC(=O)O)C(N)=O)CSCC(=O)N[C@@H](Cc2ccccc2)C(=O)N[C@@H](Cc2cccc(C)c2)C(=O)N[C@@H](CC(=O)O)C1=O (stereo partly drawn) [compound 1342] ({CH2CO}-F[Phe(3-Me)]D[NHexGly]Y[Nle]DR[NMeNle][Ahp(2)]PVDC[ξD]-NH2; thioether N-14)
17.8 | CCCCCCN1CC(=O)N[C@@H](Cc2ccc(O)cc2)C(=O)N[C@@H](CCCC)C(=O)N[C@@H](CC(=O)O)C(=O)N[C@@H](CCCN)C(=O)N(C)[C@@H](CCCC)C(=O)N[C@@H](CCCCC)C(=O)N2CCC[C@H]2C(=O)N[C@@H](C(C)C)C(=O)N[C@@H](CC(=O)O)C(=O)N[C@H](C(=O)NC(CC(=O)O)C(N)=O)CSCC(=O)N[C@@H](Cc2ccccc2)C(=O)N[C@@H](Cc2cccc(C)c2)C(=O)N[C@@H](CC(=O)O)C1=O (stereo partly drawn) [compound 1343] ({CH2CO}-F[Phe(3-Me)]D[NHexGly]Y[Nle]D[Orn][NMeNle][Ahp(2)]PVDC[ξD]-NH2; thioether N-14)
